In patent US20230312587A1, “PTERIDINONE COMPOUNDS AND USES THEREOF” (Vertex Pharmaceutical Incorporated, priority 2018, published 2023):

What was measured:
Assay type in all cases: cell-based
HepG2 XBP1(u)-Luc cells = test: HepG2 XBP1 reporter assay; settings: Homo sapiens, 6 h
How it was run: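 Reporter cells are HepG2 stably carrying unspliced XBP1 fused to firefly luciferase, which becomes in-frame after IRE1alpha-mediated splicing. SteadyGlo luminescence was normalized to DMSO-treated cells for IC50 calculation.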

Hek293 empty vector = test: In vitro cell viability (CellTiter-Glo), Hek293 empty vector; settings: Homo sapiens, HEK293; read-out: Hek293 empty vector viability
Description: HEK293 (ATCC, catalog #CRL-1573) cells are plated in 10 cm dishes (Corning, product #430167) into 10 mL of complete DMEM cell culture media [DMEM (Life Technologies, product #11960-051) media supplemented with 10% FBS (Hyclone, catalog #SH30071.03), antimycotic/antibiotic (Life Technologies, product #15240-062), and Glutamax (Life Technologies, product #35050-061)] at 3×10^6 cells per dish. Cells are allowed to attach and grow overnight at 37° C. in humidified 5% CO2. Cells are co-transfected with pVSV-G, pCMV-Gag/Pol and pCLPCX_WFS1 using Fugene 6 (Promega, catalog #E2691) according to manufacturer's protocol. Separately, cells are co-transfected with pVSV-G, pCMV-Gag/Pol and pCLPCX to produce control retrovirus. Cell culture media containing retrovirus (viral supernatant) is collected at 48 and 72 hours following transfection, filtered through a 0.4 uM filter, and stored at −80° C.
HEK293 cells are plated in 6 well plates (Corning, product #3516) in 2 mL of complete DMEM cell culture media at 1×10^5 cells well and allowed to attach and grow overnight at 37° C. in humidified 5% CO2. The following day, the media is replaced with viral supernatant to which 10 ug/ml of Polybrene® (Santa Cruz Biotech, catalog #sc-134220) is added. Viral supernatant is replaced 24 hours later with complete DMEM media. Transduced cells are selected in complete DMEM cell culture media containing 1 microgram/mL of puromycin (Life Technologies, catalog #A1113803).
(§1) HEK293 cells containing empty pCLPCx vector (HEK293 empty), HEK293 cells stably over-expression WFS1 (HEK293 WFS1), HepG2, and HepG2 cells where WFS1 was depleted via CRISPR/Cas9 (HepG2 WFS1 KO) cells were plated into 96-well black plates (Corning, product #3904) in 100 microliters of complete DMEM cell culture media [DMEM (Life Technologies, product #11960-051) media supplemented with 10% FBS (Hyclone, catalog #SH30071.03), antimycotic/antibiotic (Life Technologies, product #15240-062), and Glutamax (Life Technologies, product #35050-061)] at 1,000 (HEK293) or 5,000 (HepG2) cells per well. Cells were allowed to attach and grow overnight, after which compounds are added at various concentrations. Cell viability was assessed 96 hrs after compound addition with CellTiter-Glo reagent (Promega, catalog #G7570) according to manufacturer's protocol and measurement on a Pherastar luminescence plate reader (BMG Labtech).
The IC50s for the viability of both the Hek293 empty vector and WFS1 over-expressing cells are summarized in Table 47: A<0.06 μM; 0.06 μM≤B<0.6 μM; 0.6 μM≤C<3.0 μM; D≥3.0 μM.

HepG2 parental = test: In vitro cell viability (CellTiter-Glo), HepG2 parental; settings: Homo sapiens, 96 hours, read-out: HepG2 viability
Description: as §1
To determine the effect of WFS1 depletion on compound mediated inhibition of cell viability, parental HepG2 cells and HepG2 cells where WFS1 was deleted by CRISPR/Cas9 were exposed to increasing concentrations of either Compound 136 or Compound 253 for 96 hours after which time viability was determined using Cell Titer Glo reagent (Promega). […] The IC50s for the viability of both the HepG2 parental and WFS1 knockout cells are summarized in Table 47: A<0.5 μM; 0.5 μM≤<2.0 μM; 2.0 μM≤C<10.0 μM; D≥[…].

| Compound | IC50 (HepG2 XBP1(u)-Luc cells) | IC50 (Hek293 empty vector) | IC50 (HepG2 parental) |
| --- | --- | --- | --- |
| Cc1nc(NCc2cnn(Cc3cnc(Cl)c(F)c3)c2)nc2c1NC(=O)[C@H](C(C)C)N2C [Compound 424, (7S)-2-(((1-((6-chloro-5-fluoropyridin-3-yl)methyl)-1H-pyrazol-4-yl)methyl)amino)-7-isopropyl-4,8-dimethyl-7,8-dihydropteridin-6(5H)-one] | < 0.6 µM | ≥ 3 µM | < 0.5 µM |
| Cc1nc(NCc2cnn(Cc3cncc(F)c3)c2)nc2c1NC(=O)[C@H](C(C)C)N2C [Compound 415, (7S)-2-(((1-((5-fluoropyridin-3-yl)methyl)-1H-pyrazol-4-yl)methyl)amino)-7-isopropyl-4,8-dimethyl-7,8-dihydropteridin-6(5H)-one] | 0.6 to 2 µM | ≥ 3 µM | 0.5 to 2 µM |
| Cc1nc(NCc2cnn(Cc3ccc(C(F)(F)F)nc3[C@@H](C)O)c2)nc2c1NC(=O)[C@H](C)N2C (single isomer, unassigned) [Compound 420] | 2 to 10 µM | ≥ 3 µM | 0.5 to 2 µM |
| Cc1ncc(Cn2cc(CNc3nc(C)c4c(n3)N(C)[C@@H](C)C(=O)N4)cn2)cn1 [Compound 163, (7S)-4,7,8-trimethyl-2-(((1-((2-methylpyrimidin-5-yl)methyl)-1H-pyrazol-4-yl)methyl)amino)-7,8-dihydropteridin-6(5H)-one] | ≥ 10 µM | ≥ 3 µM | ≥ 10 µM |
| Cc1cc(F)ncc1Cn1cc(CNc2nc(C)c3c(n2)N(C)[C@@H](C(C)C)C(=O)N3)cn1 [Compound 423, (7S)-2-(((1-((6-fluoro-4-methylpyridin-3-yl)methyl)-1H-pyrazol-4-yl)methyl)amino)-7-isopropyl-4,8-dimethyl-7,8-dihydropteridin-6(5H)-one] | < 0.6 µM | ≥ 3 µM | < 0.5 µM |
| Cc1nc(NCc2cnn(Cc3ccc(C(F)(F)F)nc3C(C)(C)O)c2)nc2c1NC(=O)[C@H](C)N2C [Compound 416, (7S)-2-(((1-((2-(2-hydroxypropan-2-yl)-6-(trifluoromethyl)pyridin-3-yl)methyl)-1H-pyrazol-4-yl)methyl)amino)-4,7,8-trimethyl-7,8-dihydropteridin-6(5H)-one] | < 0.6 µM | ≥ 3 µM | < 0.5 µM |
| Cc1nn(C)cc1Cn1cc(CNc2nc(C)c3c(n2)N(C)[C@@H](C)C(=O)N3)cn1 [Compound 139, (7S)-2-(((1-((1,3-dimethyl-1H-pyrazol-4-yl)methyl)-1H-pyrazol-4-yl)methyl)amino)-4,7,8-trimethyl-7,8-dihydropteridin-6(5H)-one] | ≥ 10 µM | ≥ 3 µM | ≥ 10 µM |
| Cc1nc(N[C@H]2C[C@H](Oc3ccnc(C(F)(F)F)c3)C2)nc2c1NC(=O)[C@H](C)N2C [Compound 335, (7S)-4,7,8-trimethyl-2-((trans-3-((2-(trifluoromethyl)pyridin-4-yl)oxy)cyclobutyl)amino)-7,8-dihydropteridin-6(5H)-one] | < 0.6 µM | ≥ 3 µM | 2 to 10 µM |
| Cc1nc(NCc2cnn(CCc3ccc(F)cc3)c2)nc2c1NC(=O)[C@H](C)N2C [Compound 6, (7S)-2-(((1-(4-fluorophenethyl)-1H-pyrazol-4-yl)methyl)amino)-4,7,8-trimethyl-7,8-dihydropteridin-6(5H)-one] | 0.6 to 2 µM | ≥ 3 µM | 2 to 10 µM |
| Cc1nc(NCc2cn(Cc3ccc(C(F)(F)F)nc3)cn2)nc2c1NC(=O)[C@H](C)N2C [Compound 428, (S)-4,7,8-trimethyl-2-(((1-((6-(trifluoromethyl)pyridin-3-yl)methyl)-1H-imidazol-4-yl)methyl)amino)-7,8-dihydropteridin-6(5H)-one] | ≥ 10 µM | ≥ 3 µM | ≥ 10 µM |
| Cc1nc(N[C@H]2CC[C@H](n3ccc(C(F)(F)F)n3)C2)nc2c1NC(=O)[C@H](C)N2C (single isomer, unassigned) [Compound 310] | < 0.6 µM | ≥ 3 µM | ≥ 10 µM |
| Cc1nc(N[C@H]2C[C@@H](Oc3cc(F)c(F)c(F)c3)C2)nc2c1NC(=O)[C@H](C)N2C [Compound 247, (7S)-4,7,8-trimethyl-2-((cis-3-(3,4,5-trifluorophenoxy)cyclobutyl)amino)-7,8-dihydropteridin-6(5H)-one] | ≥ 10 µM | ≥ 3 µM | 2 to 10 µM |
| Cc1nc(NCc2cnn(Cc3ccc(C(F)(F)F)nc3)c2)nc2c1NC(=O)[C@H](C(C)C)N2C [Compound 383, (7S)-7-isopropyl-4,8-dimethyl-2-(((1-((6-(trifluoromethyl)pyridin-3-yl)methyl)-1H-pyrazol-4-yl)methyl)amino)-7,8-dihydropteridin-6(5H)-one] | 0.6 to 2 µM | ≥ 3 µM | < 0.5 µM |
| Cc1nc(NCc2cnn(Cc3ccc(Cl)nc3)c2)nc2c1NC(=O)[C@H](C(C)C)N2C [Compound 409, (7S)-2-(((1-((6-chloropyridin-3-yl)methyl)-1H-pyrazol-4-yl)methyl)amino)-7-isopropyl-4,8-dimethyl-7,8-dihydropteridin-6(5H)-one] | < 0.6 µM | ≥ 3 µM | < 0.5 µM |
| CC(=O)N(Cc1cnn(Cc2ccc(C(F)(F)F)nc2)c1)c1nc(C)c2c(n1)N(C)[C@@H](C)C(=O)N2 [Compound 405, (7S)-N-((1-((6-(trifluoromethyl)pyridin-3-yl)methyl)-1H-pyrazol-4-yl)methyl)-N-(4,7,8-trimethyl-6-oxo-5,6,7,8-tetrahydropteridin-2-yl)acetamide] | ≥ 10 µM | ≥ 3 µM | ≥ 10 µM |
| Cc1ncc(Cn2cc(CNc3nc(C)c4c(n3)N(C)[C@@H](C(C)C)C(=O)N4)cn2)cc1F [Compound 425, (7S)-2-(((1-((5-fluoro-6-methylpyridin-3-yl)methyl)-1H-pyrazol-4-yl)methyl)amino)-7-isopropyl-4,8-dimethyl-7,8-dihydropteridin-6(5H)-one] | 0.6 to 2 µM | ≥ 3 µM | 0.5 to 2 µM |
| Cc1nc(N[C@H]2C[C@H](Oc3ccc(F)nc3)C2)nc2c1NC(=O)[C@H](C)N2C [Compound 357, (7S)-2-((trans-3-((6-fluoropyridin-3-yl)oxy)cyclobutyl)amino)-4,7,8-trimethyl-7,8-dihydropteridin-6(5H)-one] | 2 to 10 µM | ≥ 3 µM | 2 to 10 µM |
| Cc1nc(NCc2cnn([C@@H]3CCN(c4ccc(F)cc4)C3)c2)nc2c1NC(=O)[C@H](C)N2C [Compound 170, (7S)-2-(((1-((R)-1-(4-fluorophenyl)pyrrolidin-3-yl)-1H-pyrazol-4-yl)methyl)amino)-4,7,8-trimethyl-7,8-dihydropteridin-6(5H)-one] | < 0.6 µM | ≥ 3 µM | < 0.5 µM |
| Cc1nc(N[C@@H]2CC[C@@H](n3ccc(C(F)(F)F)n3)C2)nc2c1NC(=O)[C@H](C)N2C (single isomer, unassigned) [Compound 311] | < 0.6 µM | ≥ 3 µM | ≥ 10 µM |
| CN1C(=O)C(C)(C)N(C)c2nc(NCc3cnn(Cc4cccnc4C(F)(F)F)c3)ncc21 [Compound 237, 5,7,7,8-Tetramethyl-2-(((1-((2-(trifluoromethyl)pyridin-3-yl)methyl)-1H-pyrazol-4-yl)methyl)amino)-7,8-dihydropteridin-6(5H)-one] | 0.6 to 2 µM | ≥ 3 µM | ≥ 10 µM |
